Peptide text beside a SMILES is read from it.
Tests used:
Assay type in all cases: cell-based, human
[1] = tested on: OG33 oligodendroglioma stem cells; test: Cell cycle profile by propidium iodide staining and flow cytometry; settings: 100 μM NAA or 10 μM NAAG
Description: (§1) Cell cycle profiles were visualized by propidium iodide (PI) staining as previously described (Perez-Martinez & Jaworski (2005) J Neurosci 25:4917-29). OG35, OG33 and mouse neural stem cells were grown in stem cell medium (SCM; DMEM/F12, B27, 20 ng/ml ea bFGF & EGF) while the oligodendrocyte progenitor cell line, Oli-neu (Jung et al. (1995) Eur J Neurosci 7:1245-65) was grown in Sato's medium (DMEM supplemented with 100 μg/ml apotransferrin, 5 μg/ml insulin, 60 nM triiodothyronine, 30 nM sodium selenite, 100 μM putrescine, 1% horse serum, and 25 μg/ml G418). […] after 0.25% (v/v) GTA treatment, cells were trypsinized, recovered by centrifugation, re-suspended (10^6 cells/ml) in a low-salt PI solution ([…] polyethylene glycol PEG 8000, […], 180 U/ml RNase A, 0.1% Triton X-100, and 4 mM sodium citrate), and incubated at 37° C. for 20 minutes. After addition of an equal volume of high-salt PI solution ([…] polyethylene glycol PEG 8000, […], 180 U/ml RNase A, 0.1% Triton X-100, and 400 mM NaCl) and incubation at 4° C. for 1 hour, cell cycle profiles were recorded by flow cytometry (BD LSR 11 Flow Cytometer, BD Biosciences; Franklin Lakes, N.J.).

[2] = tested on: ASPA in OG33 cells; test: Immunocytochemistry of ASPA localization after NAA or NAAG; settings: 100 μM NAA or 10 μM NAAG; 5 days in DM; OG33 (cytosolic)
Description: (§2) Immunocytochemistry was performed as described (Perez-Martinez & Jaworski (2005) J Neurosci 25:4917-29). Briefly, OG33 and OG35 cells were plated into differentiaion medium (DMEM, 10% FBS), fixed with 2% paraformaldehyde, and ASPA expression localized immunocytochemically using rabbit anti-mouse ASPA (1,500×) (Madhavarao et al., 2004 Comp Neurol 472:318-29) and Cy-3 conjugated secondary antibody (500×; Jackson ImmunoResearch, West Grove, Pa.).

[3] = tested on: ASPA in OG35 cells; test: as above; settings: 100 μM NAA or 10 μM NAAG; 5 days in DM; OG35 (primarily nuclear)
Description: as §2

[4] = tested on: ASPA in OG33 cells; test: Western blot of ASPA expression; settings: NAA and NAAG treatment (not shown)
Description: SDS-PAGE (25 μg protein from whole cell lysates) and western blotting were performed as previously described (Lluri et al. 2008 Exp Cell Res 314:11-24). Cytosol and nuclear fractions were isolated according to standard protocols. Antibodies: rabbit anti-mouse ASPA (2,000×), (Madhavarao et al. 2004 Comp Neurol 472:318-29) rabbit anti-human ASPA (5,000×; GTX1338; GeneTex, Irvine, Calif.), goat anti-human actin (1,000×, sc-1616, Santa Cruz Biotechnology, Santa Cruz, Calif.), rabbit anti-human GAPDH (5,000×, sc-25778, Santa Cruz Biotechnology, Santa Cruz, Calif.), mouse anti-human histone H1 (250×, sc-8030; Santa Cruz Biotechnology, Santa Cruz, Calif.). Species-specific HRP—(3,000×) conjugated secondary antibodies were obtained from Jackson ImmunoResearch (West Grove, Pa.). Immunocomplexes were visualized by enhanced chemiluminescence (PerkinElmer Life Sciences; Boston, Mass.) and densitometry performed using Quantity One software (Bio-Rad; Hercules, Calif.).
SDS-PAGE (25 μg protein from whole cell lysates) and western blotting were performed as previously described in Example 1.

[5] = tested on: OG35 oligodendroglioma stem cells; test: Growth dynamics, trypan blue exclusion and manual counting; settings: 100 μM NAA or 10 μM NAAG; stem cell medium (SCM) and differentiation medium (DM); later time points up to 5 days
Description: (§3) Stem cell spheres from two oligodendroglioma stem cell lines (OG33 and OG35) were plated (at 10,000 cells per well of a 24-well plate) in the absence or presence of 100 μM N-acetylaspartate (NAA) or 10 μM N-acetylaspartylglutamate (NAAG) in stem cell medium (SCM) containing DMEM/F12 (Gibco/Life Technologies, Grand Island, N.Y.), B27 supplement (Gibco/Life Technologies, Grand Island, N.Y.), and 20 ng/ml each basic fibroblast growth factor (bFGF) and epidermal growth factor (EGF), or differentiation medium (DM) containing DMEM, 10% FBS. Medium, with fresh drug, was replenished every 48 hours. Growth dynamics were assessed using trypan blue exclusion and manual counting 1, 3, and 5 days after plating.

[6] = tested on: OG33 oligodendroglioma stem cells; test: as above; settings: 100 μM NAA or 10 μM NAAG; SCM and DM; later time points up to 5 days
Description: as §3

[7] = tested on: OG35 oligodendroglioma stem cells; test: Cell cycle profile by propidium iodide staining and flow cytometry; settings: 100 μM NAA or 10 μM NAAG
Description: as §1

CC(=O)N[C@@H](CC(=O)O)C(=O)O [NAA, N-acetylaspartate]
OG33 cell number by flow cytometric cell cycle analysis [1]: no significant change
ASPA spatial localization [2]: little effect
ASPA spatial localization [3]: little effect
Expression of novel 26 kDa ASPA species [4]: induced
OG35 cell growth (cell number, manual counting) [5]: increased in SCM and DM
OG33 cell growth (cell number, manual counting) [6]: only increased in SCM

CC(=O)N[C@@H](CC(=O)O)C(=O)N[C@@H](CCC(=O)O)C(=O)O [NAAG, N-acetylaspartylglutamate] (Ac-Asp-Glu-OH)
OG35 growth by flow cytometric cell cycle analysis (cells in G2/M and G0/G1) [7]: promoted OG35 growth
OG33 cell number by flow cytometric cell cycle analysis [1]: no significant change
ASPA spatial localization [2]: little effect
ASPA spatial localization [3]: little effect
Expression of novel 26 kDa ASPA species [4]: induced
OG35 cell growth (cell number, manual counting) [5]: increased in SCM and DM
OG33 cell growth (cell number, manual counting) [6]: only increased in SCM

Source: patent publication US10765654B2, “Methods and compounds for treating cancer” (University of Vermont and State Agricultural College, priority 2011, dated 2020)
